# In patent US10562842B2, “Use of polyaminoisoprenyl derivatives in antibiotic or antiseptic treatment” (UNIVERSITE D'AIX-MARSEILLE, priority 2011, dated 2020):
# Peptide text beside a SMILES is read from it. * marks the point of attachment. βNA = c1ccc2cc(N*)ccc2c1
# Assays:
# Ea289 = test: MIC by broth dilution (intrinsic MIC); assay type: cell-based, Enterobacter aerogenes; conditions: antibiotic alone
# Method: (§1) Susceptibilities to antibiotics and compounds were determined in microplates by broth dilution method, as previously described. Minimal Inhibitory Concentrations (MICs) were determined with an inoculum of 10^6 CFU in 200 μL of MH broth containing two-fold serial dilutions of each drug. […] All MIC determinations were repeated at least three times in independent experiments.
# Ea294 = test: MIC by broth dilution (intrinsic MIC); assay type: cell-based, Enterobacter aerogenes; conditions: antibiotic alone
# Method: as §1
# BN10055 = test: MIC by broth dilution (intrinsic MIC); assay type: cell-based, Salmonella enterica; conditions: antibiotic alone
# Method: as §1
# BN10055ΔacrB [1] = test: MIC by broth dilution (intrinsic MIC); assay type: cell-based, Salmonella enterica; conditions: antibiotic alone
# Method: as §1
# [2] = Tolerance in mice, intraperitoneal route; assay type: in vivo; conditions: for tissue anomaly (liver, lung, kidney, intestine): day 2, Compound 5 8.8 mg/kg, 8 1.46 mg/kg, 11 0.45 mg/kg, 14 0.35 mg/kg, 12 6.3 mg/kg
# Method: Mice were administered with increasing doses of test compounds by intraperitoneal route.
# The mice were sacrificed on day 2 after the injection of the test compound and autopsied. No morphological anomaly was observed. Liver, lung, kidney and intestine of each mouse were fixed and analysed.
# [3] = tested on: Enterobacter aerogenes MDR Ea289; test: MIC of antibiotics ± test compound (MIC ratio), micro-broth dilution; assay type: cell-based; conditions: for Effective concentration (mM) for a MIC ratio of chloramphenicol ≥ 8 on Ea289 / MIC ratio (*) on Ea289 Chl: chloramphenicol
# Method: The process consists of treating the MDR bacteria with the compounds of the invention in the presence of antibiotics.
# as §1
# The MICs of chloramphenicol±test compounds (MIC/4) were determined by the micro-broth dilution method (9). All MIC determinations were repeated at least three times in independent experiments. The MIC ratio corresponds to the ratio of the MIC of an antibiotic alone to the MIC of the same antibiotic in the presence of the tested compound (at MIC/4).
# The compounds listed in Table 2 were tested for their ability to decrease the chloramphenicol MIC of Ea289, an Enterobacter aerogenes MDR strain (1). Each compound was first tested at MIC/4. […] All MIC determinations were repeated at least three times in independent experiments.
# (§2) For reminder, the MIC ratio corresponds to the ratio of the MIC of the assessed antibiotic alone to the MIC of the same antibiotic in the presence of the tested compound (at MIC/4).
# [4] = tested on: Salmonella Thyphimurium MDR BN10055; test: as above; assay type: cell-based, Salmonella enterica serovar Typhimurium; conditions: compound at MIC/4; for MIC ratio (*) on BN10055 Chl: chloramphenicol; for MIC ratio (*) on BN10055 Dox: doxycycline; for MIC ratio (*) on BN10055 Nal: nalidixic acid
# Method: (§3) The Enterobacter aerogenes Ea289 strain is a Kans derivative of the MDR clinical isolate Ea27, the acrB mutant, EaEP294, was constructed from Ea289. Multidrug-resistant Salmonella enterica serovar Typhimurium DT104 strains (BN10055) was isolated from cattle in France, the isogenic acrB derivative mutant, BN10055ΔacrB, was constructed from BN10055. Strains were maintained at −80° C. in 25% (v/v) glycerol for cryoprotection. Bacteria were routinely grown in Mueller-Hinton (MH) broth at 37° C.
# as §1
# (§4) […] All MIC determinations were repeated at least three times in independent experiments. The MIC ratio corresponds to the ratio of the MIC of an antibiotic alone to the MIC of the same antibiotic in the presence of the tested compound (at MIC/4).
# as §2
# BN10055ΔacrB [5] = test: as above; assay type: cell-based, Salmonella enterica serovar Typhimurium; conditions: compound at MIC/4, Set 1
# Method: as §3, §1, §4, §2
# [6] = tested on: Enterobacter aerogenes MDR Ea289; test: as above; assay type: cell-based; conditions: compound at MIC/4, Set 2; for MIC ratio (*) on Ea289 Dox: doxycycline; for MIC ratio (*) on Ea289 Nal: nalidixic acid
# CHO cells = test: Toxicity on CHO cultured cells; assay type: cell-based; conditions: killing of 50% of the CHO cells after 24 hours of incubation
# Method: The toxicity of each compound was determined on CHO cultured cells. Incubation of CHO cells was performed with serial dilution of compounds. The compounds are either solubilized in DMSO or in PBS. The IC50 corresponds to the concentration of compounds leading to a killing of 50% of the CHO cells after 24 hours of incubation.
# Ea289ΔacrB (Ea294) = test: MIC of antibiotics ± test compound (MIC ratio), micro-broth dilution; assay type: cell-based, Enterobacter aerogenes; conditions: compound at MIC/4, Set 1
# Method: as §3, §1, §4, §2
# E. aerogenes ATCC13048 = test: Susceptibility of Gram-negative strains to macrolides in the presence of test compound; assay type: cell-based, Enterobacter aerogenes
# A. Baumannii ATCC19606 = test: as above; assay type: cell-based, Acinetobacter baumannii; design: Susceptibility to Clarithomycin, A. Baumannii ATCC19606: key to the marks not given beside the values
# E. Coli AG100 = test: as above; assay type: cell-based, Escherichia coli; design: Susceptibility to Clarithomycin, E. Coli AG100 / Susceptibility to Erythromycin, E. Coli AG100: key to the marks not given beside the values
# [7] = tested on: S. enterica Thyphimurium ATCC13311; test: as above; assay type: cell-based, Salmonella enterica Typhimurium; design: key to the marks not given beside the values
smiles,measurement,setting,value
"O=C(N[C@H](CO)[C@H](O)c1ccc([N+](=O)[O-])cc1)C(Cl)Cl [Chloramphenicol, reference compound]","Chl-MIC: Chloramphenicol Minimal Inhibitory Concentration, Ea289",Ea289,1024 µg/mL
same,"Chl-MIC: Chloramphenicol Minimal Inhibitory Concentration, Ea294",Ea294,64 µg/mL
same,"Chl-MIC: Chloramphenicol Minimal Inhibitory Concentration, BN10055",BN10055,256 µg/mL
same,"Chl-MIC: Chloramphenicol Minimal Inhibitory Concentration, BN10055ΔacrB",BN10055ΔacrB [1],16 µg/mL
CC(C)=CCC/C(C)=C/C(=O)NCCCN(CCCN)CCCN [Compound 5],tissue observation at the highest dose,[2]; 35.25 mg/kg,slight vascular modifications
same,"tissue anomaly (liver, lung, kidney, intestine)",[2],no significant tissue anomaly
"CC(C)=CCC/C(C)=C/CC/C(C)=C/CNCCCNCCCCNCCCN [Compound 8, {3-[4-(3-Amino-propylamino)-butylamino]-propyl}-(3,7,11-trimethyl-dodeca-2,6,10-trienyl)-amine]",Effective concentration (mM) for a MIC ratio of chloramphenicol ≥ 8 on Ea289,[3],0.0078 mM
same,"efficient concentration, times lower than the control PAβN",[3]; chloramphenicol MIC ratio of 8 on Ea289,about 4.9 times
same,"activity, effective concentration compared with PAβN to reach a MIC ratio of 8",[3]; chloramphenicol on Ea289,strong activity
same,MIC ratio (*) on Ea289 Chl,"[3]; compound at MIC/4, Set 1",8-16
same,MIC ratio (*) on Ea289 Chl,"[3]; compound at MIC/4, Set 2",8-16
same,MIC ratio(*) on Ea289 Ery,"[3]; erythromycin, compound at MIC/4, Set 1",32
same,MIC ratio (*) on Ea289 Nal,"[3]; nalidixic acid, compound at MIC/4, Set 1",>16
same,MIC ratio (*) on BN10055 Chl,[4]; Set 1,>16
same,MIC ratio (*) on BN10055 Chl,[4]; Set 2,16-32
same,MIC ratio (*) on BN10055 Dox,[4]; Set 2,8
same,MIC ratio(*) on BN10055 Ery,"[4]; erythromycin, Set 1",8
same,MIC ratio (*) on BN10055 Nal,[4]; Set 1,64
same,MIC ratio (*) on BN10055 Nal,[4]; Set 2,64
same,MIC ratio(*) on BN10055ΔacrB Chl,BN10055ΔacrB [5]; chloramphenicol,4
same,MIC ratio(*) on BN10055ΔacrB Ery,BN10055ΔacrB [5]; erythromycin,8
same,MIC ratio(*) on BN10055ΔacrB Nal,BN10055ΔacrB [5]; nalidixic acid,4
same,MIC ratio (*) on Ea289 Dox,[6],16
same,MIC ratio (*) on Ea289 Nal,[6],16-32
same,IC50,CHO cells; Cricetulus griseus,0.726 mM
same,MIC ratio(*) on Ea289ΔacrB Chl,Ea289ΔacrB (Ea294); chloramphenicol,2
same,MIC ratio(*) on Ea289ΔacrB Ery,Ea289ΔacrB (Ea294); erythromycin,16
same,MIC ratio(*) on Ea289ΔacrB Nal,Ea289ΔacrB (Ea294); nalidixic acid,4
same,"tissue anomaly (liver, lung, kidney, intestine)",[2],no significant tissue anomaly
"CC(C)=CCC/C(C)=C/CNCCCN [Compound 12, (3,7-Dimethyl-octa-2,6-dienyl)-propane-1,3-diamine]",MIC ratio (*) on Ea289 Chl,"[3]; compound at MIC/4, Set 2",16
same,MIC ratio (*) on BN10055 Chl,[4]; Set 2,8
same,MIC ratio (*) on BN10055 Dox,[4]; Set 2,16
same,MIC ratio (*) on BN10055 Nal,[4]; Set 2,32
same,MIC ratio (*) on Ea289 Dox,[6],16
same,MIC ratio (*) on Ea289 Nal,[6],4-8
same,"tissue anomaly (liver, lung, kidney, intestine)",[2],no significant tissue anomaly
"N=C(N)NCCC[C@H](NC(=O)[C@@H](N)Cc1ccccc1)C(=O)Nc1ccc2ccccc2c1 [PAβN, Phenyl-Arginine β-Naphtylamide] (H-Phe-Arg-βNA)","Susceptibility to Clarithomycin, E. aerogenes ATCC13048",E. aerogenes ATCC13048,+
same,"Susceptibility to Erythromycin, E. aerogenes ATCC13048",E. aerogenes ATCC13048,+
same,"Susceptibility to Spiramycin, E. aerogenes ATCC13048",E. aerogenes ATCC13048,+
same,Effective concentration (mM) for a MIC ratio of chloramphenicol ≥ 8 on Ea289,[3],0.038 mM
same,"Susceptibility to Clarithomycin, A. Baumannii ATCC19606",A. Baumannii ATCC19606,++
same,"Susceptibility to Erythromycin, A. Baumannii ATCC19606",A. Baumannii ATCC19606,+
same,"Susceptibility to Spiramycin, A. Baumannii ATCC19606",A. Baumannii ATCC19606,+
same,IC50,CHO cells,> 5 mM
same,"Susceptibility to Clarithomycin, E. Coli AG100",E. Coli AG100,++
same,"Susceptibility to Erythromycin, E. Coli AG100",E. Coli AG100,++
same,"Susceptibility to Spiramycin, E. Coli AG100",E. Coli AG100,+
same,"Susceptibility to Clarithomycin, S. enterica Thyphimurium ATCC13311",[7],++
same,"Susceptibility to Erythromycin, S. enterica Thyphimurium ATCC13311",[7],++
same,"Susceptibility to Spiramycin, S. enterica Thyphimurium ATCC13311",[7],++
